Source: patent publication US20080249123A1, “WORTMANNIN-RAPAMYCIN CONJUGATE AND USES THEREOF” (Wyeth, priority 2007, published 2008)

Key:
[1] = system: OVCAR3; experiment: In vitro cell culture growth assay (MTS), OVCAR3; assay type: cell-based, Human; conditions: ovarian line, 3 days after drug treatment
Protocol: (§1) Human tumor cell lines (Table 3) include prostate lines LNCap and PC3MM2, breast lines MDA468, MCF7, renal line HTB44 (A498), colon line HCT116, and ovarian line OVCAR3. Cells were plated in 96-well culture plates.
(§2) One day following plating, the following conjugates (inhibitors) were added to cells: • Compound A 42,17′-linked wortmannin-adipate-rapamycin conjugate, diethylamine adduct • Compound B 42,17′-linked wortmannin-adipate-rapamycin conjugate. • Compound C 42,17′-linked wortmannin-succinate-rapamycin conjugate, N,N,N′-trimethyl 1,3-propanediamine adduct • Compound D 42,17′-linked wortmannin-adipate-rapamycin conjugate, diallylamine adduct • Compound E 42,17′-linked wortmannin-adipate-rapamycin conjugate, N,N,N′-trimethyl 1,3-propanediamine adduct • Compound F 42,17′-linked wortmannin-suberate-rapamycin conjugate, N,N,N′-trimethyl 1,3-propanediamine adduct.
(§3) Three days after drug treatment, viable cell densities were determined by metabolic conversion (by viable cells) of the MTS dye (3-(4,5-dimethylthiazol-2-yl)-5-(3 carboxymethoxyphenyl)-2-(4-sulfophenyl)-2H-tetrazolium, inner salt), a well established cell proliferation assay. The assays were performed using an assay kit purchased from Promega Corp. (Madison, Wis.) following the protocol supplied with the kit. The MTS assay results were read in a 96-well plate reader by measuring absorbance at 490 nm. The effect of each treatment was calculated as percent of control growth relative to the vehicle-treated cells grown in the same culture plate. The drug concentration that conferred 50% inhibition of growth was determined as IC50 (μg/mL). See, Table 3.

[2] = system: A498 renal cell carcinoma xenograph; experiment: In vivo anticancer efficacy in HTB44/A498 renal cell carcinoma model; conditions: conjugate i.v. 1× weekly 15 mg/kg, 2 rounds; Intron A ip 3× weekly 0.5 mU, 2 weeks
Protocol: This study utilized a model of renal cancer performed as previously described. See, e.g., Yu K, et al., PWT-458, A Novel Pegylated-17-Hydroxywortmannin, Inhibits Phosphatidylinositol 3-Kinase Signaling and Suppresses Growth of Solid Tumors. Cancer Biol Ther. May 28, 2005; 4(5).
On day 23 the Vehicle group ([…]) was redosed with a combination 42,17′-linked wortmannin-suberate-rapamycin N,N,N′-trimethyl 1,3-propanediamine adduct (30 mg/kg) and the Avastin® drug (200 μg) for five rounds. On day 43, the 42,17′-linked wortmannin-suberate-rapamycin conjugate, N,N,N′-trimethyl 1,3-propanediamine adduct group (30 mg/kg) and the Avastin® drug group (200 μg) were redosed with a combination of 42,17′-linked wortmannin-suberate-rapamycin conjugate, N,N,N′-trimethyl 1,3-propanediamine adduct and the Avasting drug for three rounds.

[3] = system: HCT116; experiment: In vitro cell culture growth assay (MTS), HCT116; assay type: cell-based, Human; conditions: colon line, 3 days after drug treatment
Protocol: as §1, §2, §3

[4] = system: MDA468; experiment: In vitro cell culture growth assay (MTS), MDA468; assay type: cell-based, Human; conditions: breast line, 3 days after drug treatment
Protocol: as §1, §2, §3

[5] = system: HT29 colon tumor xenograph; assay type: in vivo; conditions: 1× weekly for four rounds
Protocol: The effect of 42,17′-linked wortmannin-suberate-rapamycin conjugate, N,N,N′-trimethyl 1,3-propanediamine adduct, prepared as described in Example 4 was studied in a model of human colon cancer.
The 42,17′-linked wortmannin-suberate-rapamycin conjugate, N,N,N′-trimethyl 1,3-propanediamine adduct (▪, 15 mg/kg), rapamycin (▴, 10 mg/kg), 17-hydroxywortmannin N,N,N′-trimethyl 1,3-propanediamine adduct (▾, 5 mg/kg) and a physical combination of rapamycin (10 mg/kg) and 17-hydroxywortmannin N,N,N′-trimethyl 1,3-propanediamine adduct (5 mg/kg) were dosed 1× weekly for four rounds against a HT29 colon tumor xenograph. Vehicle served as a negative control ([…]).

[6] = system: MCF7; experiment: In vitro cell culture growth assay (MTS), MCF7; assay type: cell-based, Human; conditions: breast line, 3 days after drug treatment
Protocol: as §1, §2, §3

[7] = system: U87MG Glioma Xenografts; experiment: Xenograft tumor efficacy study, U87MG glioma in nude mice; assay type: in vivo
Protocol: Female nude mice at 10 weeks of age were inoculated subcutaneously on the flank with 200 μL U87MG (human gliobastoma) tumor cell suspension. U87MG cells were suspended in full growth media and were implanted at 10 million cells per mouse. Mice were staged when tumors reached approximately 200 mm^3 in sizes. Tumor bearing mice at staging (day 0) were randomized into treatment groups (n=10). […]
The growth of tumors was monitored twice a week for the duration of the experiment. Tumor size was measured using sliding vernier calipers, and the tumor mass was calculated using the formula (length×Width^2)/2.
The experimental methods for drug preparation, dosing route, regimen, etc (listed in the Table 4) were similar to the experiments presented in the Figures. The data in Table 4 and the Figures were derived from multiple and completely different experiments. Within Table 4, the data contained separate experiments.

[8] = system: LNCap; experiment: In vitro cell culture growth assay (MTS), LNCap; assay type: cell-based, Human; conditions: prostate line, 3 days after drug treatment
Protocol: as §1, §2, §3

[9] = system: HTB44 (A498); experiment: In vitro cell culture growth assay (MTS), HTB44 (A498); assay type: cell-based, Human; conditions: renal line, 3 days after drug treatment
Protocol: as §1, §2, §3

[10] = system: PC3MM2; experiment: In vitro cell culture growth assay (MTS), PC3MM2; assay type: cell-based, Human; conditions: prostate line, 3 days after drug treatment
Protocol: as §1, §2, §3

Substance: 42,17′-linked wortmannin-suberate-rapamycin conjugate, N,N,N′-trimethyl 1,3-propanediamine adduct [Compound F]
- IC50 inhibition of tumor cell growth, OVCAR3 [1]: 6.48 µg/mL
- antitumor activity (FIG. 6) [2]: increased antitumor activity as compared to vehicle and Intron® A reagent alone
- IC50 inhibition of tumor cell growth, HCT116 [3]: 12.75 µg/mL
- IC50 inhibition of tumor cell growth, MDA468 [4]: 0.50 µg/mL
- tolerability (FIG. 5) ([5]; 15 mg/kg, in contrast to physical combination): better tolerated
- tumor reduction (FIG. 5) ([5]; conjugate 15 mg/kg, combination rapamycin 10 mg/kg + 17-hydroxywortmannin adduct 5 mg/kg): significant tumor reduction
- IC50 inhibition of tumor cell growth, MCF7 [6]: 0.24 µg/mL
- antitumor efficacy versus physical combination (FIG. 3) ([7]; 15 mg/kg, 1× weekly for 2 rounds): at least as active as the physical combination
- efficacy after a single dose (FIG. 4) ([7]; single dose 30, 45 and 60 mg/kg): effective in the intermittent regimen
- IC50 inhibition of tumor cell growth, LNCap [8]: 0.06 µg/mL
- IC50 inhibition of tumor cell growth, HTB44 [9]: 2.10 µg/mL
- IC50 inhibition of tumor cell growth, PC2MM2 [10]: 1.00 µg/mL
